Patent publication US5455240A, “Modulators of pneumococcal adhesion to cellular targets involving the platelet activating factor receptor, and uses thereof” (The Rockefeller University, priority 1994, dated 1995)

Columns and labels:
[1] = system: type II lung cells and vascular endothelial cells; assay: Pneumococcal adherence to EC and LC, results stated for both cell types together; type: cell-based, human; settings: for IC50: Homo sapiens, Endothelial cell, 0.5 h, activated cells (IL-1α-stimulated LC, TNFα-stimulated EC), R6 10^7 cfu/ml, 30 min, 37° C., read-out: ED50 of inhibition of pneumococcal adherence; for inhibition of adherence to resting cells by single sugars: resting EC and LC
Experimental: (§1) FIG. 2. Effect of PAF receptor antagonists on pn[…] to IL-1α-stimulated cultured human type II lung cells (A) and TNFα-stimulated vascular endothelial cells (B). Cytokine stimulated monolayers were incubated (10 min, 37° C.) with either albumin buffer (--) or increasing concentrations of the PAF receptor antagonists L659,989 ( ) and WEB 2086 ( ) and R6 pneumococci (10^7 cfu/ml) allowed to adhere to the monolayers for 30 min at 37° C. Control adherence in the absence of cytokine stimulation is indicated by a horizontal dotted line (------). Adherent bacteria were determined as the number of attached bacteria per 100 lung or endothelial cells. Results are the means ±SD for duplicate wells in at least six independent experiments. *p<0.05 compared with cytokine-stimulation in the absence of antagonists.
FIG. 4. Effect of simple sugars on adherence of R6 to resting and cytokine-stimulated human cultured type II pneumocytes (A) and vascular endothelial cells (B). R6 (10^7 cfu/ml) was exposed to various simple sugars (15 min, room temperature) and then co-incubated with either resting (.quadrature.) or cytokine-stimulated ( ) monolayers for 30 min. Pn[…] to a designated sugar was defined as bacterial adherence to 100 host cells in the absence of sugar-bacterial adherence to 100 host cells in the presence of sugar. Results are the means ±SD for duplicate wells in at least six independent experiments. Glc=D-glucose, Gal=D-galactose, Fuc=L-fucose, GalNAc=N-acetyl-D-galactosamine, GlcNAc=N-acetyl-D-glucosamine, Man=D-mannose, NANA=sialic acid, Lac=lactose and 2-ADGG=2-acetamido-2-deoxy-3-O-B-D-galactopyranosyl-D-galactopyranose.
(§2) The contribution of carbohydrate recognition to pn[…] to cytokine-stimulated EC and LC was tested using competition assays performed in the presence of monosaccharides (1-50 mM) or glycoconjugates (0.003-2 mM) the role of carbohydrate recognition in pn[…] is disclosed more fully in copending application Ser. No. 08/254,577, Attorney Docket No. 600-1-084, filed Jun. 6, 1994 by Tuomanen and Cundell, entitled "MODULATORS OF PN[…] TO PULMONARY AND VASCULAR CELLS AND DIAGNOSTIC AND THERAPEUTIC APPLICATIONS"; hereinafter Tuomanen and Cundell. Bacteria were pre-incubated for 15 min at room temperature with final concentrations of the sugars as stated, centrifuged (3,000 rpm, 3 min) to remove unbound sugar, resuspended to 1×10^7 cfu/ml in albumin buffer and added to the adherence assay. […] Adherence of bacteria lacking choline to activated cells in the presence and absence of GlcNAc was 121 ±11 and 119 ±5/100 EC and 137 ±7 and 135 ±13/100 LC, respectively.

[2] = molecular target: T1, PAF receptor (Homo sapiens, UniProt P25105); assay: Pneumococcal adherence to U937 and COS-7 cells transfected with PAF receptor; type: cell-based; design: pneumococcal adherence; settings: for pneumococcal adherence to PAF receptor-transfected cells: transfected COS-7 and U937 cells, antagonists 1 μM (FIG. 3); for adherence of R6 to U937 cells in presence of glycoconjugate: PAF receptor-transfected U937, input 10^7 cfu/ml, 296 ±30 without glycoconjugates
T1 sequence (P25105 whole entry): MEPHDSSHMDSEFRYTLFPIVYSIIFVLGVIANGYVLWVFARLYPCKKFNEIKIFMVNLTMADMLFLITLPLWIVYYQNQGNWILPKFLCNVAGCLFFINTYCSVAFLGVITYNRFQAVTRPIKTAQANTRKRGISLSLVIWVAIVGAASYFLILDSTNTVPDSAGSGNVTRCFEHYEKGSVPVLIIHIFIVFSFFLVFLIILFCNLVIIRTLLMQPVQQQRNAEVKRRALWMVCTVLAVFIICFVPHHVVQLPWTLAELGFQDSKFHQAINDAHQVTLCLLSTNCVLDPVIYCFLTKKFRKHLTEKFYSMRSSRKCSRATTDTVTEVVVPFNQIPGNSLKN
Experimental: FIG. 3. Effect on pneumococcal adherence to PAF receptors of receptor deglycosylation, the antagonists WEB 2086 and L659,989 (1 μM) and removal of phosphorylcholine from the pneumococcal cell wall (Tuomanen et al., 1985, J. Infect. Dis. 151: 859).
Recently, the PAF receptor was cloned from human leukocytes and successfully transfected into kidney epithelial cells (Kunz et al, supra). To determine if pneumococci could directly adhere to PAF receptors, human U937 cells (ATCC CRL1593; embryonic kidney epithelial cells stably transfected with the SV40 large T-antigen) and COS-7 cells (ATCC CRL 1651; monkey kidney) were transfected with the human PAF receptor cDNA (Gerard and Gerard, 1994, J. Immunol 152: 793) or the cDNA containing a Flag construct (Kunz et al., supra) by electroporation (Kunz et al., supra) or the addition of cationic liposomes (Gerard and Gerard, supra). […] Controls cells were transfected with vector alone. Monolayers of transfected and control cells were prepared in 60-well Terasaki dishes. Monolayers of COS-7 and U937 cells are prepared in 48-well culture dishes using the methods previously described for EC and LC (Geelen et al., 1993, Infect. Immun. 61: 1538).

[3] = molecular target: T1, PAF receptor; design: IP3 (3H-inositol) response; settings: Hwang and Lam, 1991; cited from earlier work
[4] = molecular target: T1, PAF receptor; assay: Activation of PAF receptor-transfected COS-7 cells, 3H incorporation in inositoltriphosphate (IP3); type: cell-based; design: IP3 (3H-inositol) response
Experimental: FIG. 6. Pneumococci activate the PAF receptor. COS cells in a monolayer were treated with control, platelet activating factor ([…]), pneumococci (10^8 bacteria/ml), ethanolamine-cultured pneumococci (10^8 bacteria/ml), PAF+L659,989, and pneumococci+L659,989. Activation was measured by detecting the level of incorporation of ^3 H in inositoltriphosphate, which is reported as the percentage above background .
Activation of COS-7 cells transfected with the PAF receptor was assayed. The cells were exposed to medium (control), platelet activating factor ([…]), pneumococci (10^8 bacteria/ml), and ethanolamine cultured pneumococci (10^8 bacteria/ml). Inhibition of activation by PAF and pneumococci with the PAF receptor antagonist L659,989 (2 μg/ml) was also measured. Cellular activation was measured by detecting incorporation of ^3 H in inositoltriphosphate (IP3).

[5] = system: type II lung epithelial cells (LC); assay: Pneumococcal adherence to human type II lung epithelial cell monolayers, resting or IL-1α-stimulated; type: cell-based; settings: for pneumococcal adherence to resting LC in presence of antagonist: 1 μM antagonist, without antagonist 270 ±10; for Number of pneumococci adherent to designated receptor on host cell: 2 mM sugar, adherence per 100 host cells without sugar minus with sugar
Experimental: (§3) FIG. 1. Adherence of pneumococci to cytokine-stimulated human cultured type II pneumocytes (A) and vascular endothelial cells (B). Monolayers in 60 well Terasaki dishes were stimulated with IL-1α (type II lung cells; 5 ng/ml, 4 h at 37° C.; Rozdzinski et al., 1993, J. Exp. Med. 178: 917) and TNFα (vascular endothelial cells; 10 ng/ml, 3 h at 37° C.; Elias et al., 1990, Am. J. Respir. Cell. Mol. Biol. 3: 13). Pneumococci R6 and AII were cultured for 18 h on trypticase soy agar containing 3% sheep blood, labelled with fluorescein isothiocyanate and adjusted to 10^5 -10^7 cfu/ml (Geelen et al., 1993, Infect. Immun. 61: 1538), and co-incubated with the monolayers. Control adherence in the absence of cytokine is indicated by a hatched line (-----). Bacteria adherent to cytokine-stimulated (.cndot.) and resting (.smallcircle.) monolayers were determined as the number of attached bacteria per 100 lung or endothelial cells. Results are the means ±SD for duplicate wells in at least six independent experiments.
as §1
(§4) The adherence of S. pneumoniae encapsulated strain AII (serotype 2) and the isogeneic unencapsulated strain R6 to human vein endothelial cells (EC) and type II lung epithelial cells (LC) was quantitated before and after stimulation of the eukaryotic cells with IL-1 or TNF. Adherence to EC was increased […] by TNFα stimulation (FIG. 1). […] (increase from 240 ±10 to 363 ±13 bacteria/100 EC; increase from 270 ±15 to 355 ±18 bacteria/100 LC). Adherence was not affected by the presence of a type II capsule. At an input concentration of 10^7 cfu/ml, adherence of AII and R6 to 100 TNFα-stimulated EC was 405 ±14 and 400 ±10, respectively.
as §2

[6] = system: human vein endothelial cells (EC); assay: Pneumococcal adherence to human vein endothelial cell monolayers, resting or TNFα-stimulated; type: cell-based; settings: for pneumococcal adherence to resting EC in presence of antagonist: 1 μM antagonist, without antagonist 240 ±15; for Number of pneumococci adherent to designated receptor on host cell: 2 mM sugar, adherence per 100 host cells without sugar minus with sugar
Experimental: as §3, §1, §4, §2

[7] = monosaccharides 1-50 mM (FIG. 4)

CCCOc1c(OC)cc([C@@H]2CC[C@@H](c3cc(OC)c(OC)c(OC)c3)O2)cc1S(C)(=O)=O (relative stereo) [L659,989]
IC50 [1]: 50 nM
pneumococcal adherence to PAF receptor-transfected cells [2]: inhibit pneumococcal adherence
oral activity [3]: orally active
inhibition of PAF-mediated activation ([4]; L659,989 2 μg/ml, PAF 100 mM): almost completely inhibited
inhibition of pneumococcal-mediated activation ([4]; L659,989 2 μg/ml, pneumococci 10^8 bacteria/ml): almost completely inhibited
pneumococcal adherence to resting LC in presence of antagonist ([5]; resting LC): 272 ±8 bacteria
pneumococcal adherence to resting EC in presence of antagonist ([6]; resting EC): 237 ±9 bacteria/EC

O=C[C@@H](O)[C@@H](O)[C@H](O)[C@H](O)CO [D-mannose]
inhibition of adherence to resting cells by single sugars [1, 7]: effective in inhibiting adherence to resting cells

CC(=O)N[C@H]1C(O)O[C@H](CO)[C@H](O)[C@@H]1O (stereo partly drawn) [GalNAc, N-acetyl-D-galactosamine]
inhibition of adherence to resting cells by single sugars [1, 7]: effective in inhibiting adherence to resting cells

CC(=O)N[C@H]1C(O)O[C@H](CO)[C@@H](O)[C@@H]1O (stereo partly drawn) [GlcNAc, N-acetyl-D-glucosamine]
inhibition of adherence to activated cells by single sugars ([1]; cytokine-stimulated EC and LC, monosaccharides 1-50 mM (FIG. 4)): became effective in activated cells
decrease of pneumococcal adherence to transfected cells ([2]; transfected COS-7 and U937 cells (FIG. 3)): about 40%
adherence of bacteria lacking choline to activated LC in presence of sugar ([5]; ethanolamine-grown pneumococci, activated LC, 135 ±13 without sugar): 137 ±7 /100 LC
adherence of bacteria lacking choline to activated EC in presence of sugar ([6]; ethanolamine-grown pneumococci, activated EC): 121 ±11 /100 EC

CCCCCCCCCCCCCCCCOCC(COP(=O)([O-])OCC[N+](C)(C)C)OC(C)=O (centres unmarked) [PAF, platelet activating factor]
pneumococcal adherence to PAF receptor-transfected cells [2]: inhibit pneumococcal adherence
3H incorporation in IP3 (receptor activation) ([4]; PAF 100 mM, transfected COS-7 cells (FIG. 6)): significant ^3 H incorporation in IP3

Cc1nnc2n1-c1sc(CCC(=O)N3CCOCC3)cc1C(c1ccccc1Cl)=NC2 [WEB 2086]
IC50 [1]: 10 nM
pneumococcal adherence to PAF receptor-transfected cells [2]: inhibit pneumococcal adherence
pneumococcal adherence to resting LC in presence of antagonist ([5]; resting LC): 264 ±8 bacteria
pneumococcal adherence to resting EC in presence of antagonist ([6]; resting EC): 224 ±12 bacteria/EC

TNFα
increase of pneumococcal adherence to EC by cytokine stimulation ([6]; TNFα 10 ng/ml, 3 h (FIG. 1)): ~ 70%

asialo-GM2
adherence of R6 to U937 cells in presence of glycoconjugate [2]: 327 ±39
Number of pneumococci adherent to designated receptor on host cell ([5]; LC + IL-1α, control 355 ± 18): 205 ± 9
Number of pneumococci adherent to designated receptor on host cell ([5]; resting LC, control 270 ± 15): 140 ± 10
Number of pneumococci adherent to designated receptor on host cell ([6]; EC + TNFα, control 415 ± 25): 180 ± 13
Number of pneumococci adherent to designated receptor on host cell ([6]; resting EC, control 240 ± 10): 140 ± 12

globoside
adherence of R6 to U937 cells in presence of glycoconjugate [2]: 318 ±30
Number of pneumococci adherent to designated receptor on host cell ([5]; LC + IL-1α, control 355 ± 18): 200 ± 11
Number of pneumococci adherent to designated receptor on host cell ([5]; resting LC, control 270 ± 15): 140 ± 10
Number of pneumococci adherent to designated receptor on host cell ([6]; EC + TNFα, control 415 ± 25): 200 ± 9
Number of pneumococci adherent to designated receptor on host cell ([6]; resting EC, control 240 ± 10): 110 ± 8

B1: IL-1: interleukin-1, cytokine used to stimulate cells (protein, UniProt P01583 113-271, looked up)
Interleukin-1 alpha: SAPFSFLSNVKYNFMRIIKYEFILNDALNQSIIRANDQYLTAAALHNLDEAVKFDMGAYKSSKDDAKITVILRISKTQLYVTAQDEDQPVLLKEMPEIPKTITGSETNLLFFWETHGTKNYFTSVAHPNLFIATKQDYWVCLAGGPPSITDFQILENQA
pneumococcal adherence to LC after cytokine stimulation ([5]; IL-1 stimulation, resting 270 ±15): 355 ±18 bacteria/100 LC
pneumococcal adherence to EC after cytokine stimulation ([6]; IL-1 stimulation, resting 240 ±10): 363 ±13 bacteria/100 EC
